{"source": "patent EP1368044B1", "about": "“IMMUNOMODULATOR FOR THE MANAGEMENT OF HUMAN IMMUNODEFICIENCY VIRUS (HIV) DISEASE/INFECTION” (Bakulesh, Mafatlal Khamar, priority 2002, dated 2002)", "origin": "cited, not measured here", "test_system": "HIV", "conditions": "along with interleukin-2", "note": "Ends that are not written are not given here.", "data": [{"substance": "Thymosin α1: a 28-aminoacid peptide (SDAAVDTSSEITTKDLKEKKEVVEEAEN; ends and bridges not checked; UniProt P06454 2-29, looked up)", "values": [{"measurement": "efficacy to improve CD4", "result": "no significant effect"}]}]}
